One may read the IC50 as the concentration at which inhibition is half-maximal. Read a high IC50 as weaker potency.

The assay concerns the target T1, CXCR4 (Homo sapiens, UniProt P61073).
T1 construct: full-length receptor overexpressed in U87.CD4.CXCR4 glioma cells
Put plainly: […]SDF-1 (CXCL12) displacement on U87.CD4.CXCR4 cells. Type of assay: cell-based.

T1 sequence (P61073 whole entry): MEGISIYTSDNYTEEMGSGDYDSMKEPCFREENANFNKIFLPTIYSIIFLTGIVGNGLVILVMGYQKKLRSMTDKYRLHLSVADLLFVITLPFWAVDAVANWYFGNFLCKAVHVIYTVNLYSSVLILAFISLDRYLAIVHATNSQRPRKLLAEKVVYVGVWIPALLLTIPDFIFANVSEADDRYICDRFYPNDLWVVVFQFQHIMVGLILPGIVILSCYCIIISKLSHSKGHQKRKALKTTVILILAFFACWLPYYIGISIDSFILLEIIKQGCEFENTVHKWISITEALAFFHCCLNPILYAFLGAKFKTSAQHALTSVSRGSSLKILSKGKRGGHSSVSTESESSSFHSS

For `c1ccc(CNCc2ccc(CN3CCCNCCNCCCNCC3)cc2)nc1` [AMD3465], the IC50 was 89.8 ± 3.5 nM.
With `Fc1ccc(CNCCNCc2ccc(CN3CCCNCCNCCCNCC3)cc2)cc1` [compound 5, N^1-(4-((1,4,8,11-Tetraazacyclotetradecan-1-yl)methyl)benzyl)-N^2-(4-fluorobenzyl)ethane-1,2-diamine], the IC50 was determined as 111 ± 4 nM.

These data come from publication PMC6522096, “Development and Evaluation of an ^18F-Radiolabeled Monocyclam Derivative for Imaging CXCR4 Expression” (Molecular Pharmaceutics, 2019).
